Values quoted from earlier work as cited in US6884908B2, “Process for isolation of hepatoprotective agent “oleanolic acid” from Lantana camera” (Council of Scientific & Industrial Research, priority 2003, dated 2005).

Assays:
[1] = system: azoxymethane-induced intestinal tumor; details: rats, 200 ppm in diet for 3 weeks
[2] = system: CCl4-induced liver parenchymal cell necrosis, steatosis and degeneration; details: in vivo
[3] = system: adjuvant induced arthritis; details: rats and mice
[4] = system: paw edema produced by dextran; details: rats and mice
[5] = system: experimental hyperlipidemic rats; details: 50 mg/kg, P.O. for 9 days

CC1(C)CC[C@]2(C(=O)O)CC[C@]3(C)C(=CC[C@@H]4[C@@]5(C)CC[C@H](O)C(C)(C)[C@@H]5CC[C@]43C)[C@@H]2C1 [oleanolic acid, (3-O-β-hydroxy-olea-12-en-28-oic acid]
incidence and multiplicity of azoxymethane-induced intestinal tumor [1]: decreases the incidence and multiplicity | CCl4-induced liver parenchymal cell necrosis, steatosis and degeneration [2]: decreases | adjuvant induced arthritis [3]: suppressing | paw edema produced by dextran [4]: inhibiting | decrease of elevated blood cholesterol level [5]: more than 40% | decrease of elevated β-lipoprotein level [5]: more than 40%
